Measurements: patent US6150335A, “Tic-containing opioid dipeptide derivatives useful as analgesics” (Astra AB, priority 1996, dated 2000)

Tests used:
guinea pig ileum (GPI) = assay: Guinea pig ileum (GPI) bioassay: inhibition of electrically evoked contractions; type: cell-based; conditions: normalized with [Leu5]enkephalin standard, effect primarily μ-mediated
Experimental: (§1) Bioassays based on inhibition of electrically evoked contractions of the mouse vas deferens (MVD) and of the guinea pig ileum (GPI) were performed. In the GPI assay the opioid effect is primarily mediated by μ opioid receptors, whereas in the MVD assay the inhibition of the contractions is mostly due to interaction with δ opioid receptors.
(§2) The GPI and MVD bioassays were carried out as reported in P. W. Schiller et al., Biochem. Biophys. Res. Commun. 85, 1332-1338 (1978) and J. DiMaio et al., J. Med. Chem. 25, 1432-1438 (1982). A log-dose response curve was determined with [Leu^5 ]enkephalin as standard for each ileum and vas preparation, and IC50 values of the compounds being tested were normalized according to A. A. Waterfield et al., Eur. J. Pharmacol. 58, 11-18 (1979).

μ opioid receptor = target: T1, μ opioid receptor (Rattus norvegicus, UniProt P33535); assay: μ opioid receptor binding assay, displacement of [3H]DAMGO from rat brain membranes; conditions: [3H]DAMGO 0.7 nM, Cheng-Prusoff
T1 construct: Male Sprague-Dawley rats (300-350 g) from the Canadian Breeding Laboratories were decapitated and after removal of the cerebellum the brains were homogenized; from tissue; host or cells: rat brain (without cerebellum) membranes, male Sprague-Dawley
Experimental: (§3) μ and δ opioid receptor binding constants (Ki^μ,Ki^δ) of the compounds were determrined by displacement of relatively selective μ and δ radioligands from binding sites in rat brain membrane preparations calculated from the measured IC50 values on the basis of the equation by Cheng and Prusoff, (Y. C. Cheng and W. H. Prusoff Biochem. Pharmnacol. 22, 3099-3102 (1973)).
(§4) The μ-, δ- and κ-opioid receptor affinities of all new analogs were determined in binding assays based on displacement of μ-, δ- and κ-selective radioligands from rat brain membrane binding sites. In the case of κ-ligands guinea pig brain homogenates were used, since the relative proportion of κ-binding sites is higher in guinea pig brain than in rat brain. The experimental procedure being used in our laboratory represents a modified version of the binding assay described by Pasternak et al. (Mol. Pharnacol. 11, 340-351 (1975)). Male Sprague-Dawley rats (300-350 g) from the Canadian Breeding Laboratories were decapitated and after removal of the cerebellum the brains were homogenized in 30 volumes of ice-cold standard buffer (50 mnM Tris HCl , pH 7.7). After centrifugation at 30,000×g for 30 min at 4° C. the membranes were reconstituted in the original volume of standard buffer and incubated for 30 min at 37° C. (to release bound endogenous ligands). Subsequent centrifugation and resuspension of the pellet in the initial volume of fresh standard buffer yielded the final membrane suspension. Aliquots (2 ml) of the membrane preparations were incubated for 1-2 h at 25° C. with 1 ml standard buffer containing the peptide to be tested and one of the following radioligands at the final concentration indicated: [^3 H]DAMGO, μ-selective, 0.7 nM; [^3 H]DSLET, μ-selective, 1.0 nM; and [^3 H]U69,563, κ-selective, 0.5 nM. The incubation was terminated by filtration through Whatman GF/B filters under vacuum at 4° C. Following two washings with 5 ml portions of ice-cold standard buffer the filters were transferred to scintillation vials and treated with 1 ml Protosol (New England Nuclear) for 30 min prior to addition of 0.5 ml acetic acid and 10 ml Aquasol (New England Nuclear). After shaking for 30 min the vials were counted at an efficiency of 40-45%. All experiments were performed in duplicate and repeated at least three times. Specific binding of each of the three radioligands was defined by performing incubations in the presence of cold DAMGO, DSLET and U69,563, respectively, at a concentration of 1 micromolar. Values of half-maximal inhibition (IC50) of specific binding were obtained graphically from semilogarithmic plots. From the measured IC50-values, binding inhibition constants (Ki) were calculated based on Cheng and Prusoff's equation (Biochem. Pharmacol. 22, 3099-3102 (1973)). Ratios of the Ki -values determined in the μ-, δ- and κ-representative binding assays are a measure of the receptor selectivity of the compound under investigation (e.g. Ki^μ /Ki^μ indicates the selectivity for δ-receptors versus μ-receptors).

mouse vas deferens (MVD) = assay: Mouse vas deferens (MVD) bioassay: inhibition of electrically evoked contractions; type: cell-based; conditions: for GPI/MVD IC50 ratio: ratio of GPI IC50 to MVD IC50
Experimental: as §1, §2

δ opioid receptor = target: T2, δ opioid receptor (Rattus norvegicus, UniProt P33533); assay: δ opioid receptor binding assay, displacement of [3H]DSLET from rat brain membranes; conditions: for Ki: rat brain membranes, [3H]DSLET 1.0 nM, Cheng-Prusoff; for Ki^μ/Ki^δ: δ versus μ receptor selectivity
T2 construct: Male Sprague-Dawley rats (300-350 g) from the Canadian Breeding Laboratories were decapitated and after removal of the cerebellum the brains were homogenized; from tissue; host or cells: rat brain (without cerebellum) membranes, male Sprague-Dawley
Experimental: as §3
as §4, with “[…];” for “[^3 H]DSLET, μ-selective, 1.0 nM;”

[1] = inhibition of electrically evoked contractions, normalized with [Leu5]enkephalin standard, effect mostly δ-mediated

T2 sequence (P33533 whole entry): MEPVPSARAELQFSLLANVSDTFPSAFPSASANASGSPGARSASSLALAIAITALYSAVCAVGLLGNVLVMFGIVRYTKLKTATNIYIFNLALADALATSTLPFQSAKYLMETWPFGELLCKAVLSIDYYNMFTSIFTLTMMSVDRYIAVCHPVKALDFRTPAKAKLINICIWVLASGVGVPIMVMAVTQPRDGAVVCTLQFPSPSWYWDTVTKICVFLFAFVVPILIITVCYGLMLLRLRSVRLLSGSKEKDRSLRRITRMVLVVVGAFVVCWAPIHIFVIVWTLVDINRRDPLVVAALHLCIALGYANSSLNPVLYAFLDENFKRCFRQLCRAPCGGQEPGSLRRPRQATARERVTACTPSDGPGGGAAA
T1 sequence (P33535 whole entry): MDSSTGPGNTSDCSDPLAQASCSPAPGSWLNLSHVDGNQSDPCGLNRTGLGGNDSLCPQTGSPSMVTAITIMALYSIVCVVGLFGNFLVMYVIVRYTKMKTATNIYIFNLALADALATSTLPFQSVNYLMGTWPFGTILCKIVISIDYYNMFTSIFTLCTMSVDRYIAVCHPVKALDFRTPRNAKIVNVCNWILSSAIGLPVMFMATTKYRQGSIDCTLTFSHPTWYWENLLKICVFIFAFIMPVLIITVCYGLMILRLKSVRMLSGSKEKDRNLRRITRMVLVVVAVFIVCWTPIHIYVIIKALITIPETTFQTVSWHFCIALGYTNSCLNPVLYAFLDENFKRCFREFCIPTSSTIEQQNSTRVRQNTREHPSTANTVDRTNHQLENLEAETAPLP

Row | SMILES | IC50 (guinea pig ileum (GPI)) [nM] | Ki (μ opioid receptor) [nM] | IC50 (mouse vas deferens (MVD); [1]) [nM] | GPI/MVD IC50 ratio (mouse vas deferens (MVD)) | Ki (δ opioid receptor) [nM] | Ki^μ/Ki^δ (δ opioid receptor) | GPI IC50 (guinea pig ileum (GPI)) | δ opioid agonist character (full / partial) (mouse vas deferens (MVD); conclusion from MVD and GPI assays) | MVD IC50 (mouse vas deferens (MVD); [1])
1 | N[C@@H](Cc1ccc(O)cc1)C(=O)N1Cc2ccccc2C[C@H]1C(=O)NCC(CO)c1ccccc1 (single isomer, unassigned) [Example 28] | > 10000 | 242 ± 20 | 92.6 ± 6 | > 108 | 7.8 ± 2.8 | 31.0 |  |  | 
2 | N[C@@H](Cc1ccc(O)cc1)C(=O)N1Cc2ccccc2C[C@H]1C(=O)NCCc1ccccc1Br [Example 5] | 613 ± 26 | 23.3 ± 7.7 | 13.9 ± 1.9 | 44.1 | 1.24 ± 0.27 | 18.8 |  |  | 
3 | N[C@@H](Cc1ccc(O)cc1)C(=O)N1Cc2ccccc2C[C@H]1C(=O)N[C@@H]1CCc2ccccc2C1 [Example 20, H-Tyr-Tic-2-R-At (At = aminotetralin)] |  | 26.3 ± 2.3 | 36.3 ± 3.58 |  | 1.72 ± 0.17 | 15.3 | partial |  | 
4 | N[C@@H](Cc1ccc(O)cc1)C(=O)N1Cc2ccccc2C[C@H]1C(=O)NCCc1ccccc1-c1ccccc1 [Example 7] | > 10000 | 73.5 ± 7.1 | 418 ± 55 | > 23.9 | 4.76 ± 1.7 | 15.4 |  |  | 
5 | N[C@@H](Cc1ccc(O)cc1)C(=O)N1Cc2ccccc2C[C@H]1C(=O)NCC(c1ccc([N+](=O)[O-])cc1)c1ccc([N+](=O)[O-])cc1 [Example 24] | 5200 ± 1100 | 635 ± 109 | 8.91 ± 1.53 | 584 | 7.17 ± 0.24 | 88.6 |  |  | 
6 | N[C@@H](Cc1ccc(O)cc1)C(=O)N1Cc2ccccc2C[C@H]1C(=O)NCC(C1CCCCC1)C1CCCCC1 [Example 23] | 1580 ± 610 | 52.4 ± 2.5 | 21.5 ± 6.8 | 73.5 | 11.3 ± 3.3 | 4.64 |  |  | 
7 | Cc1ccccc1CCNC(=O)[C@@H]1Cc2ccccc2CN1C(=O)[C@@H](N)Cc1ccc(O)cc1 [Example 6] | 759 ± 152 | 38.7 ± 8.9 | 10.1 ± 1.2 | 75.1 | 1.75 ± 0.1 | 22.1 |  |  | 
8 | NC(=O)C(CNC(=O)[C@@H]1Cc2ccccc2CN1C(=O)[C@@H](N)Cc1ccc(O)cc1)c1ccccc1 (single isomer, unassigned) [Example 17] | 2140 ± 470 | 73.7 ± 0.6 | 34 ± 2.9 | 62.9 | 21.5 ± 4.2 | 3.43 |  |  | 
9 | CCOC(=O)C(CNC(=O)[C@@H]1Cc2ccccc2CN1C(=O)[C@@H](N)Cc1ccc(O)cc1)c1ccccc1 (single isomer, unassigned) [Example 15] | > 10000 | 886 ± 172 | 1.28 ± 0.18 | >7810 | 0.569 ± 0.08 | 1560 |  |  | 
10 | NC(Cc1ccc(O)cc1)C(=O)N1Cc2ccccc2CC1C(=O)NC1CC1c1ccccc1 (single isomer, unassigned) [Example 21] | 1600 ± 500 | 38 ± 11.2 |  |  | 4.13 ± 0.27 | 9.20 |  | partial δ agonists | partial agonist
11 | NC(Cc1ccc(O)cc1)C(=O)N1Cc2ccccc2CC1C(=O)NC1CC1c1ccccc1 (single isomer, unassigned) [Example 22] | 518 ± 147 | 11.5 ± 1.1 | 7.31 ± 2.3 | 70.9 | 1.36 ± 0.15 | 8.46 |  |  | 
12 | CCOC(=O)C(CNC(=O)[C@@H]1Cc2ccccc2CN1C(=O)[C@@H](N)Cc1ccc(O)cc1)c1ccccc1 (single isomer, unassigned) [Example 16] | > 10000 | 153 ± 5 | 8.64 ± 1.31 | >1160 | 3.03 ± 0.66 | 50.5 |  |  | 
13 | N[C@@H](Cc1ccc(O)cc1)C(=O)N1Cc2ccccc2C[C@H]1C(=O)N[C@H]1CCc2ccccc2C1 [Example 19, H-Tyr-Tic-2-S-At (At = aminotetralin)] | 1710 ± 230 | 55.8 ± 6.3 | 38.1 | 44.9 | 4.55 | 12.3 |  |  | 
